Measured values reported in patent EP0367302A2, “Process for semi-synthesis of human insulin, water-soluble cross-linked Achromobacter protease I for use therein and a process for preparing the same” (priority 1982, dated 1983).
Read-outs that look alike come from different tables or passages of the source.

Experiments:
PLP-Ia = type: biochemical, Achromobacter lyticus M 497-1
[1] = biological target: water-soluble cross-linked polymer of PLP (Achromobacter lyticus, UniProt P15636); assay: Activity to substrates (substrate specificity), cross-linked polymer; type: biochemical; conditions: enzyme: Cross-Linked Polymer (0.144 u); pH 9.5, 30°C; Benzoyl lysine-p-nitroanilide = 100
Protocol: (§1) The activity of the enzyme was measured as follows. […] After preliminarily warming at 30°C, 0.1 mℓ of the enzyme was added to the mixture and the mixture was reacted accurately for 25 minutes at 30°C. After completion of the reaction, 1.0 mℓ of a 45% acetic acid aqueous solution was added to discontinue the reaction. Then, the reaction liquid was colorimetrically measured at wavelength of 405 nm to determine absorbance. As an enzyme unit, an amount of enzyme producing 1 µmole/min of p-nitroaniline at 30°C was made 1 unit (u). Enzyme titer was calculated according to the following equation. [formula] […] Thereafter, activities to the respective substrates were measured according to the method for measuring activity described above. Results of Table 8 were obtained.

[2] = biological target: PLP prior to Polymerization (Achromobacter lyticus, UniProt P15636); assay: Activity to substrates (substrate specificity), PLP prior to polymerization; type: biochemical; conditions: enzyme: PLP prior to Polymerization; pH 9.5, 30°C; Benzoyl lysine-p-nitroanilide = 100
Protocol: as §1

Achromobacter protease I = Achromobacter protease I (Achromobacter lyticus, UniProt P15636); conditions: cited from earlier work
Chain of Achromobacter protease I (P15636 206-473 limits assumed): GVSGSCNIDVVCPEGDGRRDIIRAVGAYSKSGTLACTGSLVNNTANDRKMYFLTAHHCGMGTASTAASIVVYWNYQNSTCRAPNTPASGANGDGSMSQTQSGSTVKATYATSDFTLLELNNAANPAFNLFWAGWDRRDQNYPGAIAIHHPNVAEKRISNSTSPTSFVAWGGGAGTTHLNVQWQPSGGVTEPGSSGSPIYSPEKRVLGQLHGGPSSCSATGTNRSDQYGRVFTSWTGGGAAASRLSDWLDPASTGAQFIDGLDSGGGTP

Chain of water-soluble cross-linked polymer of PLP (P15636 206-473 limits assumed): as above
Chain of PLP prior to Polymerization (P15636 206-473 limits assumed): as above

Relative Activity [1] [%]	Relative Activity [2] [%]	Molecule	Relative Activity (PLP-Ia; 1000 µM) [%]	also measured
–	–	O[C@H](CS)[C@H](O)CS (racemic) [dithiothreitol]	103.9	–
0.00	0.00	CC(=O)N[C@@H](Cc1ccccc1)C(=O)Nc1ccc([N+](=O)[O-])cc1 [Acetylphenylalanine-p-nitroanilide]	–	–
0.00	0.00	C[C@H](N)C(=O)Nc1ccc([N+](=O)[O-])cc1 [Alanine-p-nitroanilide]	–	–
0.04	0.01	N=C(N)NCCC[C@H](NC(=O)c1ccccc1)C(=O)Nc1ccc([N+](=O)[O-])cc1 [Benzoyl arginine-p-nitroanilide]	–	–
100	100	NCCCC[C@H](NC(=O)c1ccccc1)C(=O)Nc1ccc([N+](=O)[O-])cc1 [Benzoyl lysine-p-nitroanilide]	–	–
0.00	0.00	O=C(N[C@@H](Cc1ccc(O)cc1)C(=O)Nc1ccc([N+](=O)[O-])cc1)c1ccccc1 [Benzoyl tyrosine-p-nitroanilide]	–	–
–	–	[Ca+2].[Cl-].[Cl-] [CaCℓ₂]	102.2	–
0.00	0.00	N[C@@H](CCC(=O)O)C(=O)Nc1ccc([N+](=O)[O-])cc1 [Glutamic acid-p-nitroanilide]	–	–
–	–	[Cl][Hg][Cl] [HgCℓ₂]	–	Relative Activity (PLP-Ia; 100 µM): 109.4%
–	–	N[C@@H](CS)C(=O)O [L-cystein]	97.8	–
0.00	0.00	CC(C)C[C@H](N)C(=O)Nc1ccc([N+](=O)[O-])cc1 [Leucine-p-nitroanilide]	–	–
5.6	2.4	NCCCC[C@H](N)C(=O)Nc1ccc([N+](=O)[O-])cc1 [Lysine-p-nitroanilide]	–	–
–	–	[Cl-].[Na+] [NaCℓ₂]	–	Relative Activity (PLP-Ia; bz-lys-p-na amidase assay, pH 9.5, 25 min, 1000 µM): 99.0%
–	–	[Cl-].[Cl-].[Zn+2] [ZnCℓ₂]	44.1	inhibition of the enzyme (in words) (PLP-Ia): inhibited
–	–	O=C(O)CI [monoiodoacetate]	84.4	–
–	–	c1cnc2c(c1)ccc1cccnc12 [o-phenanthroline]	99.3	inhibition of the enzyme (in words) (Achromobacter protease I): not inhibited
–	–	O=C(O)c1cc[c]([Hg][Cl])cc1 [p-chloromercury benzoate]	–	inhibition of the enzyme (in words) (Achromobacter protease I): not inhibited; Relative Activity (PLP-Ia; 100 µM): 94.8%
–	–	O=S(=O)(F)Cc1ccccc1 [phenylmethylsulfonyl fluoride]	–	inhibition of the enzyme (in words) (PLP-Ia): undergoes inhibition; Relative Activity (PLP-Ia; 2000 µM): 18.3%
–	–	Cc1ccc(S(=O)(=O)N[C@@H](CCCNC(=N)N)C(=O)CCl)cc1 [tosyl-L-arginine chloromethyl ketone]	–	Relative Activity (PLP-Ia; 100 µM): 79.1%
–	–	Cc1ccc(S(=O)(=O)N[C@@H](CCCCN)C(=O)CCl)cc1 [tosyl-L-lysine chloromethyl ketone]	–	inhibition of the enzyme (in words) (Achromobacter protease I): strongly inhibited; inhibition of the enzyme (in words) (PLP-Ia): undergoes inhibition; Relative Activity (PLP-Ia; 100 µM): 0%
–	–	Cc1ccc(S(=O)(=O)N[C@@H](Cc2ccccc2)C(=O)CCl)cc1 [tosyl-L-phenylalanine chloromethyl ketone]	92.2	inhibition of the enzyme (in words) (Achromobacter protease I): not inhibited
–	–	CoCℓ₂	98.1	–
–	–	MgCℓ₂	95.3	–
–	–	MnCℓ₂	101.3	–
–	–	NiCℓ₂	83.8	–
–	–	diisopropyl phosphochloride	–	inhibition of the enzyme (in words) (Achromobacter protease I): strongly inhibited
